Test results published in US20230212131A1, “COLLAGEN 1 TRANSLATION INHIBITORS AND METHODS OF USE THEREOF” (Anima Biotech Inc., priority 2020, published 2023).

System: collagen 1 (COL1)
Assay: WI-38 collagen 1 inhibition assay
Type: cell-based, human
Details: Cellular EC50, WI-38 cells; values are classes of LogEC50
Excerpt: All compounds were profiled for cellular potency in inhibition of collagen 1 (COL1) protein translation using a phenotypic screening platform.
WI-38 cells (ATCC® CCL-75™) were maintained in MEM EAGLE (NEAA) W. GLUTAMIN (Biological Industries, Cat. 06-1040-15-1A) containing 10% fetal bovine serum (FBS) and 1% Penicillin-Streptomycin Solution. To synchronize the cells (cell cycle synchronization) prior to induction of collagen synthesis, the cells were starved using DMEM-low glucose supplemented with 0.25% FBS for two hours and then without FBS for 24 hours. To induce collagen synthesis, the cells were treated with a collagen induction cocktail for the indicated time. Compounds were added with induction.
Cells in 96-well or 384-well plates were fixed for 20 min in 4% paraformaldehyde (PFA, ENCO, Cat. sc-281692). Following two washes with 1×PBS, cells were treated with hydrogen peroxide (Acros, Cat: 7722-84-1) for 10 minutes and then washed twice with 1×PBS. Cells were then incubated over-night at 4° C. with Anti-Collagen I (Sigma-Aldrich, Cat: C 2456) antibody and washed three times with 1×PBS. Cells were then incubated with a suitable secondary fluorescently-tagged antibody and nuclei stained with DAPI, for 1 hour, and then washed 3 times with 1×PBS.
Cell images were taken with Operetta (Perkin Elmer, USA), a wide-field fluorescence microscope at 20× magnification. After acquisition, the images were transferred to Columbus software (Perkin-Elmer) for image analysis. In Columbus, cells were identified by their nucleus, using the “Find Nuceli” module and cytoplasm was detected based on the secondary antibody channel. Subsequently, the fluorescent signal was enumerated in the identified cell region. Data was exported to a data analysis and visualization software, Tibco Spotfire, USA.

For `COCCC(=O)N1CCN(c2ccc(C(=O)Nc3nc(-c4ccccc4Cl)cs3)cc2)CC1` [Compound 376, N-(4-(2-chlorophenyl)thiazol-2-yl)-4-(4-(3-methoxypropanoyl)piperazin-1-yl)benzamide], the “COL1 Efficacy (LogEC50)” value was “+++ (+++: <−6)”.

`COCc1ccccc1-c1csc(NC(=O)c2ccc(N3CCN(S(C)(=O)=O)CC3)cn2)n1` [Compound 447, N-(4-(2-(methoxymethyl)phenyl)thiazol-2-yl)-5-(4-(methylsulfonyl)piperazin-1-yl)picolinamide] was tested, and the “COL1 Efficacy (LogEC50)” value was “+++ (+++: <−6)”.

With `O=C(Nc1nc(-c2ccccc2)cs1)c1ccc(N2CCOCC2)cc1` [compound 359, 4-morpholino-N-(4-phenylthiazol-2-yl)benzamide] the “COL1 Efficacy (LogEC50)” value was “+ (+: >−5)”.

In the case of `Cc1ccc(C(=O)Nc2nc(-c3ccc(Cl)cc3Cl)cs2)cc1` [Compound 307, N-(4-(2,4-dichlorophenyl)thiazol-2-yl)-4-methylbenzamide], the “COL1 Efficacy (LogEC50)” value is reported as “+++ (+++: <−6)”.

With `COc1ncc(C(=O)Nc2nc(-c3ccccc3Cl)cs2)cn1` [compound 345, N-[4-(2-chlorophenyl)thiazol-2-yl]-2-methoxy-pyrimidine-5-carboxamide] the “COL1 Efficacy (LogEC50)” value was “+++ (+++: <−6)”.

In the case of `CS(=O)(=O)N1CCN(C2CCC(C(=O)Nc3nc(-c4ccccc4Cl)cs3)CC2)CC1` (single isomer, unassigned) [Compound 435, (1r,4r)-N-(4-(2-chlorophenyl)thiazol-2-yl)-4-(4-(methylsulfonyl)piperazin-1-yl)cyclohexane-1-carboxamide], the “COL1 Efficacy (LogEC50)” value is reported as “++ (++: −5 to −6)”.

With `O=C(Nc1nc(-c2ccccc2Cl)cs1)C1CCC(N2CCOCC2)CC1` (centres unmarked) [compound 431] the “COL1 Efficacy (LogEC50)” value was “− (−: inactive)”.

With `COc1ccc(C(=O)Nc2nc(-c3cnccc3OC)cs2)cc1` [Compound 326, 4-methoxy-N-[4-(4-methoxy-3-pyridyl)thiazol-2-yl]benzamide] the “COL1 Efficacy (LogEC50)” value was “++ (++: −5 to −6)”.

With `CC(C)=CC(=O)Nc1nc(-c2cc(Cl)sc2Cl)cs1` [compound 314] the “COL1 Efficacy (LogEC50)” value was “++ (++: −5 to −6)”.

In the case of `CN1CCC[C@H]1C(=O)N1CCN(c2ccc(C(=O)Nc3nc(-c4ccccc4Cl)cs3)nc2)CC1` [Compound 466, N-(4-(2-chlorophenyl)thiazol-2-yl)-5-(4-(methylprolyl)piperazin-1-yl)picolinamide], the “COL1 Efficacy (LogEC50)” value is reported as “+++ (+++: <−6)”.

With `O=C(Nc1nc(-c2ccccc2Cl)cs1)[C@H]1C[C@H](N2CCOCC2)C1` [compound 422, (1r,3r)-N-(4-(2-chlorophenyl)thiazol-2-yl)-3-morpholinocyclobutane-1-carboxamide] the “COL1 Efficacy (LogEC50)” value was “++ (++: −5 to −6)”.

`CNC1CCN(c2ccc(C(=O)Nc3nc(-c4ccccc4Cl)cs3)nc2)CC1` [compound 476] was tested, and the “COL1 Efficacy (LogEC50)” value was “− (−: inactive)”.

For `COc1ccc(C(=O)Nc2nc(-c3ccccc3Cl)cs2)cc1` [Compound 304, N-(4-(2-chlorophenyl)thiazol-2-yl)-4-methoxybenzamide], the “COL1 Efficacy (LogEC50)” value was “+++ (+++: <−6)”.

With `Cc1ccc(C(=O)Nc2nc(-c3ccccc3N3CCC3)cs2)cn1` [compound 350, N-[4-[2-(azetidin-1-yl)phenyl]thiazol-2-yl]-6-methyl-pyridine-3-carboxamide] the “COL1 Efficacy (LogEC50)” value was “− (−: inactive)”.

For `O=C(Nc1nc(-c2ccccc2Cl)cs1)c1ccc(C(=O)N2CCOCC2)cc1` [compound 384, N-(4-(2-chlorophenyl)thiazol-2-yl)-4-(morpholine-4-carbonyl)benzamide], the “COL1 Efficacy (LogEC50)” value was “++ (++: −5 to −6)”.

In the case of `Cc1ncccc1-c1csc(NC(=O)c2ccc(N3CCOCC3)nc2)n1` [compound 375, N-[4-(2-methyl-3-pyridyl)thiazol-2-yl]-6-morpholino-pyridine-3-carboxamide], the “COL1 Efficacy (LogEC50)” value is reported as “+ (+: >−5)”.

In the case of `COc1cccc(-c2csc(NC(=O)c3ccc(N4CCOCC4)cc3)n2)c1` [compound 357, N-[4-(3-methoxyphenyl)thiazol-2-yl]-4-morpholino-benzamide], the “COL1 Efficacy (LogEC50)” value is reported as “+ (+: >−5)”.

For `CC(=O)NCc1ccccc1-c1csc(NC(=O)c2ccc(N3CCN(S(C)(=O)=O)CC3)cn2)n1` [compound 480], the “COL1 Efficacy (LogEC50)” value was “− (−: inactive)”.

With `CC(=O)N1CCN(c2ccc(C(=O)Nc3nc(-c4ccccc4CO)cs3)nc2)CC1` [compound 470, 5-(4-acetylpiperazin-1-yl)-N-(4-(2-(hydroxymethyl)phenyl)thiazol-2-yl)picolinamide] the “COL1 Efficacy (LogEC50)” value was “+++ (+++: <−6)”.

In the case of `O=C(Nc1nc(-c2ccccc2Cl)cs1)c1ccc(C2CCOCC2)cc1` [Compound 380, N-(4-(2-chlorophenyl)thiazol-2-yl)-4-(tetrahydro-2H-pyran-4-yl)benzamide], the “COL1 Efficacy (LogEC50)” value is reported as “+++ (+++: <−6)”.

For `COc1ccc(C(=O)Nc2nc(-c3cncnc3)cs2)cc1` [Compound 338, 4-methoxy-N-(4-pyrimidin-5-ylthiazol-2-yl)benzamide], the “COL1 Efficacy (LogEC50)” value was “+ (+: >−5)”.

In the case of `COc1ccc(C(=O)Nc2nc(-c3cccnc3C)cs2)cc1` [Compound 343, 4-methoxy-N-[4-(2-methyl-3-pyridyl)thiazol-2-yl]benzamide], the “COL1 Efficacy (LogEC50)” value is reported as “+++ (+++: <−6)”.

In the case of `CN1CCC(C(=O)N2CCN(c3ccc(C(=O)Nc4nc(-c5ccccc5Cl)cs4)nc3)CC2)C1` (centres unmarked) [Compound 482, N-(4-(2-chlorophenyl)thiazol-2-yl)-5-(4-(1-methylpyrrolidine-3-carbonyl)piperazin-1-yl)picolinamide], the “COL1 Efficacy (LogEC50)” value is reported as “+++ (+++: <−6)”.

In the case of `CN1CCCC(C(=O)N2CCN(c3ccc(C(=O)Nc4nc(-c5ccccc5Cl)cs4)nc3)CC2)C1` (centres unmarked) [Compound 467, N-(4-(2-chlorophenyl)thiazol-2-yl)-5-(4-(1-methylpiperidine-3-carbonyl)piperazin-1-yl)picolinamide hemiformate], the “COL1 Efficacy (LogEC50)” value is reported as “+++ (+++: <−6)”.

With `Cc1ccc(C(=O)Nc2nc(-c3cccnc3)cs2)cn1` [Compound 323, 6-methyl-N-[4-(3-pyridyl)thiazol-2-yl]pyridine-3-carboxamide] the “COL1 Efficacy (LogEC50)” value was “+ (+: >−5)”.

With `O=C(Nc1nc(-c2ccccc2Cl)cs1)c1ccc(N2CCCC2=O)cn1` [compound 465] the “COL1 Efficacy (LogEC50)” value was “− (−: inactive)”.

With `O=C(Nc1nc(-c2ccccc2Cl)cs1)c1ccc(N2CCOCC2)cn1` [compound 339, N-[4-(2-chlorophenyl)thiazol-2-yl]-5-morpholino-pyridine-2-carboxamide] the “COL1 Efficacy (LogEC50)” value was “+++ (+++: <−6)”.

In the case of `O=C(Nc1nc(-c2ccccc2Cl)cs1)C12CC(C(=O)N3CCOCC3)(C1)C2` [compound 420], the “COL1 Efficacy (LogEC50)” value is reported as “+ (+: >−5)”.

With `COCCOc1ccccc1-c1csc(NC(=O)c2ccc(C)nc2)n1` [Compound 341, N-[4-[2-(2-methoxyethoxy)phenyl]thiazol-2-yl]-6-methyl-pyridine-3-carboxamide] the “COL1 Efficacy (LogEC50)” value was “++ (++: −5 to −6)”.

In the case of `CNCc1ccccc1-c1csc(NC(=O)c2ccc(N3CCN(S(C)(=O)=O)CC3)cn2)n1` [compound 457], the “COL1 Efficacy (LogEC50)” value is reported as “− (−: inactive)”.

`CS(=O)(=O)N1CCN(c2ccc(C(=O)Nc3nc(-c4ccccc4Cl)cs3)nc2)CC1` [Compound 403, N-(4-(2-chlorophenyl)thiazol-2-yl)-5-(4-(methylsulfonyl)piperazin-1-yl)picolinamide] was tested, and the “COL1 Efficacy (LogEC50)” value was “+++ (+++: <−6)”.

For `O=C(Nc1nc(-c2cccnc2)cs1)c1ccc(N2CCOCC2)cc1` [compound 352, 4-morpholino-N-[4-(3-pyridyl)thiazol-2-yl]benzamide], the “COL1 Efficacy (LogEC50)” value was “+ (+: >−5)”.

In the case of `COCCOc1ccccc1-c1csc(NC(=O)c2ccc(N3CCOCC3)cc2)n1` [Compound 378, N-(4-(2-(2-methoxyethoxy)phenyl)thiazol-2-yl)-4-morpholinobenzamide], the “COL1 Efficacy (LogEC50)” value is reported as “+ (+: >−5)”.

`CN1CCC(C(=O)Nc2nc(-c3ccccc3Cl)cs2)CC1` [compound 324, N-[4-(2-chlorophenyl)thiazol-2-yl]-1-methyl-piperidine-4-carboxamide] was tested, and the “COL1 Efficacy (LogEC50)” value was “++ (++: −5 to −6)”.

With `Cc1ccc(C(=O)Nc2nc(-c3cnccc3C)cs2)cn1` [compound 348, 6-methyl-N-[4-(4-methyl-3-pyridyl)thiazol-2-yl]pyridine-3-carboxamide] the “COL1 Efficacy (LogEC50)” value was “+ (+: >−5)”.

`O=C(Nc1nc(-c2ccccc2Cl)cs1)c1ccc(Br)cc1` [compound 310] was tested, and the “COL1 Efficacy (LogEC50)” value was “+++ (+++: <−6)”.

In the case of `COCCOCc1ccccc1-c1csc(NC(=O)c2ccc(N3CCOCC3)cc2)n1` [Compound 379, N-(4-(2-((2-methoxyethoxy)methyl)phenyl)thiazol-2-yl)-4-morpholinobenzamide], the “COL1 Efficacy (LogEC50)” value is reported as “++ (++: −5 to −6)”.

With `O=C(Nc1nc(-c2ccccc2Cl)cs1)C1CC(C(=O)N2CCOCC2)C1` (centres unmarked) [compound 427] the “COL1 Efficacy (LogEC50)” value was “− (−: inactive)”.
